Test results taken from ChEMBL document CHEMBL1154793, “The lecanindoles, nonsteroidal progestins from the terrestrial fungus Verticillium lecanii 6144” (J Nat Prod, 2009).

Key:
[1] = target: T1, Progesterone receptor (Homo sapiens, UniProt P06401); assay: Displacement of [3H]progesterone from progesterone receptor in human T47D cells after 3 hrs by scintillation counting; type: cell-based
T1 sequence (P06401 whole entry): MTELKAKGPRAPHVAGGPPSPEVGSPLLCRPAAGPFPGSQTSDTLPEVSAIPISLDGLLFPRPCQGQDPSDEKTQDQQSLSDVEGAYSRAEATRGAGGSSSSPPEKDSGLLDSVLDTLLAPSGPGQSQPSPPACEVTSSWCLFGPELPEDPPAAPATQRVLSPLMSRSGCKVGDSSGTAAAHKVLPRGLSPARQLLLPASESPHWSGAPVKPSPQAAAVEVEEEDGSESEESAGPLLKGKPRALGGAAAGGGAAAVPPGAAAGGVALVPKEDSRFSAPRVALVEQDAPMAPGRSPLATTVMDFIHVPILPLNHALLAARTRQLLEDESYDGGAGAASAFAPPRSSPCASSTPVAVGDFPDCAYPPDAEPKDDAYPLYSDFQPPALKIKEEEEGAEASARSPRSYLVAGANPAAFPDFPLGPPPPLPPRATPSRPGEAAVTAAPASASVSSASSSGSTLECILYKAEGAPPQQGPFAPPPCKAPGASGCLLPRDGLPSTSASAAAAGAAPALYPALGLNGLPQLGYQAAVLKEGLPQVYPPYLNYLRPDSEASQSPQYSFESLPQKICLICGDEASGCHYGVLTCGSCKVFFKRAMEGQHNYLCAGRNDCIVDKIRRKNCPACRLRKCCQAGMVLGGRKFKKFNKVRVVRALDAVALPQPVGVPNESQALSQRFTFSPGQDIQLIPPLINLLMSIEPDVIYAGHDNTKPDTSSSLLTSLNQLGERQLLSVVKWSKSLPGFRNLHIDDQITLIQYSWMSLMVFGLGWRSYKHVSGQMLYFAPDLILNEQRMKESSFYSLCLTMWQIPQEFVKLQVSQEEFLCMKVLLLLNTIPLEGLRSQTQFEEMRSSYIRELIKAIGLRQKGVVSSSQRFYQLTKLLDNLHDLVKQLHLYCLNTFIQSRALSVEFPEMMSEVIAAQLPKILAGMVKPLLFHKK

[2] = target: T2, Glucocorticoid receptor (Homo sapiens, UniProt P04150)
T2 sequence (P04150 whole entry): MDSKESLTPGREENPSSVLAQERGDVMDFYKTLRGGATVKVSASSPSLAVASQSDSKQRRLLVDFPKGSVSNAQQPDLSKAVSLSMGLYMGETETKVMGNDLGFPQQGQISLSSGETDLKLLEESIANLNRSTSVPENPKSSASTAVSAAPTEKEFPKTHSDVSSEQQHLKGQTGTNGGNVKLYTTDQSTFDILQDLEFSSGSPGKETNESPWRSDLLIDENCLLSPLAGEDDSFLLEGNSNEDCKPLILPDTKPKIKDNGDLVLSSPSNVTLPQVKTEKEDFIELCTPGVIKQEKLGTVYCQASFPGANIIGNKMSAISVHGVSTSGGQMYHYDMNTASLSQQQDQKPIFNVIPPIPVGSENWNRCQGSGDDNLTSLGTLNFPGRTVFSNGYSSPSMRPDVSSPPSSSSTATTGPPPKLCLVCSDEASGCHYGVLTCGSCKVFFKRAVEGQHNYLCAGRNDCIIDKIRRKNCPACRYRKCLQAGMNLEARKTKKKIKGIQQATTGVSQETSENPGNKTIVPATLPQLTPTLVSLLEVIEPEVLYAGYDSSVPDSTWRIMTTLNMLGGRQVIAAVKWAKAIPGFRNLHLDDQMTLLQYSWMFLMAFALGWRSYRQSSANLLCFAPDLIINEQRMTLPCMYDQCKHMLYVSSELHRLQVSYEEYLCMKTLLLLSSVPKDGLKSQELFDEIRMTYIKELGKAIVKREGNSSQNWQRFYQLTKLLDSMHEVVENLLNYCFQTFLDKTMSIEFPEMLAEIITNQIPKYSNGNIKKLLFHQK

[3] = target: T3, Estrogen receptor (Homo sapiens, UniProt P03372)
T3 sequence (P03372 whole entry): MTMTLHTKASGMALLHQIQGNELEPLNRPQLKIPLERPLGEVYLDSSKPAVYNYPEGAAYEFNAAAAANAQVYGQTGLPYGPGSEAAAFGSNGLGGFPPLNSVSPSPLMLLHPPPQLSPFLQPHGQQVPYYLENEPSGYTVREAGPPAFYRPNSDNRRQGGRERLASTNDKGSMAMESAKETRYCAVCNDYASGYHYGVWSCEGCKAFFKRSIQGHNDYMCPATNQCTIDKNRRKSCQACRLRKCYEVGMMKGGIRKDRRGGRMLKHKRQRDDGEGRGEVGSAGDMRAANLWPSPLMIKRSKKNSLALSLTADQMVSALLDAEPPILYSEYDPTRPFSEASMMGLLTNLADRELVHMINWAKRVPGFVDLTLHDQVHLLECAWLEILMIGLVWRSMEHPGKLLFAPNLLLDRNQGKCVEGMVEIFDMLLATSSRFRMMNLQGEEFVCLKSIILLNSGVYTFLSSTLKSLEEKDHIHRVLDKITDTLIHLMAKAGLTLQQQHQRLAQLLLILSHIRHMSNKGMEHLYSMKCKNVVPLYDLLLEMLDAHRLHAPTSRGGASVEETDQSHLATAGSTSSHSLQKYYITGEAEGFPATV

[4] = target: T4, Progesterone receptor (Homo sapiens) (UniProt P06401); assay: Ratio of compound IC50 to progesterone IC50 for progesterone receptor in human T47D cells; type: cell-based
T4 sequence (whole entry): T1 sequence (P06401 whole entry)

[5] = target: T1, Progesterone receptor; assay: Displacement of progesterone from progesterone receptor in human T47D cells after 3 hrs; type: cell-based
[6] = target: T4, Progesterone receptor (Homo sapiens); assay: Activation of progesterone receptor in human T47D cells after 20 hrs by PRE-tagged luciferase reporter gene assay relative to control; type: cell-based
[7] = target: T5, Glucocorticoid receptor (Homo sapiens) (UniProt P04150); assay: Antagonist activity at glucocorticoid receptor ligand binding domain expressed in african green monkey COS7 cells co-transfected with Gal4-LBD by luciferase reporter gene assay relative to control; type: cell-based; parameters: scale not given: the % may be the effect or the level left; details: COS-7
T5 sequence (whole entry): T2 sequence (P04150 whole entry)

[8] = target: T6, Estrogen receptor (Homo sapiens) (UniProt P03372); assay: Antagonist activity at estrogen receptor alpha ligand binding domain expressed in african green monkey COS7 cells co-transfected with Gal4-LBD by luciferase reporter gene assay relative to control; type: cell-based; parameters: scale not given: the % may be the effect or the level left; details: COS-7
T6 sequence (whole entry): T3 sequence (P03372 whole entry)

[9] = target: T4, Progesterone receptor (Homo sapiens); assay: Ratio of compound EC50 to progesterone EC50 for progesterone receptor in human T47D cells; type: cell-based
[10] = target: T1, Progesterone receptor; assay: Activation of progesterone receptor in human T47D cells up to 1000 nM after 20 hrs by PRE-tagged luciferase reporter gene assay; type: cell-based
[11] = target: T3, Estrogen receptor; assay: Antagonist activity at estrogen receptor alpha ligand binding domain expressed in african green monkey COS7 cells co-transfected with Gal4-LBD up to 10 uM by luciferase reporter gene assay; type: cell-based; details: cos-7
[12] = target: T2, Glucocorticoid receptor; assay: Antagonist activity at glucocorticoid receptor ligand binding domain expressed in african green monkey COS7 cells co-transfected with Gal4-LBD up to 10 uM by luciferase reporter gene assay; type: cell-based; details: cos-7

| SMILES | IC50 [1] | IC50 [2] | IC50 [3] | Ratio IC50 [4] | IC50 [5] | Efficacy [6] | Activity [7] | Activity [8] | Ratio EC50 [9] | EC50 [10] | IC50 [11] | IC50 [12] |
| --- | --- | --- | --- | --- | --- | --- | --- | --- | --- | --- | --- | --- |
| CC1(C)[C@H](O)CC[C@]2(C)[C@@]3(C)c4[nH]c5ccccc5c4C[C@@H]3CC[C@@]12O [LECANINDOLE D] | 57.3 nM | > 1000 nM | > 10000 nM | 10 | 5.5 nM | 68% | 58% | 19% | 10 |  |  |  |
| CC1(C)C(=O)CC[C@]2(C)[C@@]3(C)c4[nH]c5ccccc5c4C[C@@H]3CC[C@@]12O [LECANINDOLE B] |  |  |  |  |  | < 1% |  |  |  | Not Active | Not Active | Not Active |
